Data as given in patent US11548893B2 (priority 2017, dated 2023).
Where two headings read alike, the source gives them in different places.

What was measured:
[1] = tested on: SUDV (glycoprotein, VSV pseudotype); experiment: microbe, parasite or virus in culture; type: cell-based, Sudan ebolavirus; conditions: Vesicular stomatitis virus, Vero, 24 h, read-out: EC50 Pseudotype Assays SUDV
[2] = tested on: EBOV (mucin-deleted glycoprotein, VSV pseudotype); experiment: microbe, parasite or virus in culture; type: cell-based, Zaire ebolavirus; conditions: Zaire ebolavirus, Vero, 24 h, read-out: EC50 Pseudotype Assays EBOV
P-gp = P-gp (Homo sapiens, UniProt P08183)
in vitro [3] = conditions: African green monkey, Cytotox CC50
Ebola Zaire [4] = tested on: Ebola Zaire
Cyp-p450 2C9 = Cyp-p450 2C9 (Homo sapiens, UniProt P11712)
in vitro [5] = conditions: African green monkey
Sudan Gulu [6] = experiment: organism not typed; conditions: read-out: Sudan Gulu EC50
physchem = conditions: pH 7, kinetic from dmso stock
Sudan Gulu [7] = experiment: organism not typed; conditions: HeLa, read-out: Sudan Gulu EC50
Cyp-p450 2C19 = Cyp-p450 2C19 (Homo sapiens, UniProt P33261)
Cyp-p450 2C8 = Cyp-p450 2C8 (Homo sapiens, UniProt P10632)
Ebola Zaire [8] = experiment: microbe, parasite or virus in culture; conditions: Zaire ebolavirus, read-out: Ebola Zaire EC90
Ebola Zaire [9] = experiment: microbe, parasite or virus in culture; conditions: Zaire ebolavirus, HeLa, read-out: Ebola Zaire EC50
[10] = pH 7
[11] = microsomes, 1 h
[12] = microsomes, 1 h; remark: listed apart in the source
[13] = microsomes, 1 h; remark: listed apart in the source
Cyp-p450 1A2 = Cyp-p450 1A2 (Homo sapiens, UniProt P05177)
[14] = microsomes, 1 h; remark: listed apart in the source
Cyp-p450 3A4 = Cyp-p450 3A4 (Homo sapiens, UniProt P08684)
in vitro [15] = conditions: human
in vitro [16] = conditions: mouse
[17] = tested on: BDBV (mucin-deleted glycoprotein, VSV pseudotype); experiment: microbe, parasite or virus in culture; type: cell-based, Bundibugyo ebolavirus; conditions: Vesicular stomatitis virus, Vero, 24 h, read-out: EC50 Pseudotype Assays BDBV
EBOV (Mayinga) = experiment: microbe, parasite or virus in culture; type: cell-based, Ebola virus
in vitro [18] = conditions: human, Caco-2
[19] = tested on: MARV (full-length glycoprotein, VSV pseudotype); experiment: microbe, parasite or virus in culture; type: cell-based, Marburg marburgvirus; conditions: Vesicular stomatitis virus, Vero, 24 h, read-out: EC50 Pseudotype Assays MARV
Ebola Zaire [20] = experiment: microbe, parasite or virus in culture; conditions: Zaire ebolavirus, read-out: Ebola Zaire EC50
Cyp-p450 2D6 = Cyp-p450 2D6 (Homo sapiens, UniProt P10635)
Cyp-p450 2B6 = Cyp-p450 2B6 (Homo sapiens, UniProt P20813)
[21] = tested on: EBOV_FL: full-length Ebola Zaire GP (VSV pseudotype); experiment: microbe, parasite or virus in culture; type: cell-based, Zaire ebolavirus; conditions: Zaire ebolavirus, Vero, 24 h, read-out: EC50 Pseudotype Assays EBOV_FL

Chain of Cyp-p450 3A4 (P08684 whole entry): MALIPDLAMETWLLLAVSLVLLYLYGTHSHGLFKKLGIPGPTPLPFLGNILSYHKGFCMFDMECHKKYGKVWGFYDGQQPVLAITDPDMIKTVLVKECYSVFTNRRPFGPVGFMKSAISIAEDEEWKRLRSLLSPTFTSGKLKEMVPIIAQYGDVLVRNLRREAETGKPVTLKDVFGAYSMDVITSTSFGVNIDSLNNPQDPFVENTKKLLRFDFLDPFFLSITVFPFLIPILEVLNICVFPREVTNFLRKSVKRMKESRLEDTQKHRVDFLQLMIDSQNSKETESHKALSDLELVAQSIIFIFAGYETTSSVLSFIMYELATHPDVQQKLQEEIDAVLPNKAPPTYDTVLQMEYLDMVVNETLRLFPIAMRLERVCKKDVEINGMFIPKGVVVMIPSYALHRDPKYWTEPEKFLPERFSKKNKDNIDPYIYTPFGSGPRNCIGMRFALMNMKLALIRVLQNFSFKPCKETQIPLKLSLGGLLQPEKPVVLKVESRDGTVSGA
Chain of P-gp (P08183 whole entry): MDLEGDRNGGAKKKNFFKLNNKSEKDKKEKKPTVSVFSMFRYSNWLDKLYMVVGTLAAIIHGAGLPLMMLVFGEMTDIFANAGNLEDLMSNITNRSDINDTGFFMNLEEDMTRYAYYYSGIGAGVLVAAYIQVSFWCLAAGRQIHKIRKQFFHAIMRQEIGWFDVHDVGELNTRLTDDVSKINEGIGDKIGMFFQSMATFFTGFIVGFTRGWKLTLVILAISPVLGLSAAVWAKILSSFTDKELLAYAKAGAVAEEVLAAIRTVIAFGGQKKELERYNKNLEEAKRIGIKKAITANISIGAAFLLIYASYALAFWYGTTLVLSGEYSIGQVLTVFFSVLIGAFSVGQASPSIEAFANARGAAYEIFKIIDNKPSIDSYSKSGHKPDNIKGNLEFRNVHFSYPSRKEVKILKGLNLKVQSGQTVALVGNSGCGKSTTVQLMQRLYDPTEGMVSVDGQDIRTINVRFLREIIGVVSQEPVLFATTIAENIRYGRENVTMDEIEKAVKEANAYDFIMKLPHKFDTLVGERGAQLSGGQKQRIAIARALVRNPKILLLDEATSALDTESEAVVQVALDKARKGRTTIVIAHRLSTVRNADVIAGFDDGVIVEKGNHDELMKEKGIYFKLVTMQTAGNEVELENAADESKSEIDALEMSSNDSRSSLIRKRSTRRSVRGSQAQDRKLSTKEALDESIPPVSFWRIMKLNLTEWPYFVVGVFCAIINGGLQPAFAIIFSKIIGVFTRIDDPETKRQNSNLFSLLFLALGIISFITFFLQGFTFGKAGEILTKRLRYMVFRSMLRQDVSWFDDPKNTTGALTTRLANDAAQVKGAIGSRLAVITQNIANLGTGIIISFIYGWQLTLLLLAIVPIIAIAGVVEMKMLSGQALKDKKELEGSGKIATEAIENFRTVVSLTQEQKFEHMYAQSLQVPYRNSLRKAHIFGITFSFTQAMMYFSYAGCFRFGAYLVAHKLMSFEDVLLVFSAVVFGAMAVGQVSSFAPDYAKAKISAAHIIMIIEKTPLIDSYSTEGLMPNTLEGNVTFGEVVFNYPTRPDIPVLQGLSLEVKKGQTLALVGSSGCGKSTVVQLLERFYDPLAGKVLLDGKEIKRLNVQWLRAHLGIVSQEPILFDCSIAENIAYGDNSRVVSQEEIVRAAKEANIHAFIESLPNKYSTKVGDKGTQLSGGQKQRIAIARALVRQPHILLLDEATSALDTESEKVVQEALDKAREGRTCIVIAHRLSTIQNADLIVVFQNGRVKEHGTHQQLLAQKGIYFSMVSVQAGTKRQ
Chain of Cyp-p450 2C9 (P11712 whole entry): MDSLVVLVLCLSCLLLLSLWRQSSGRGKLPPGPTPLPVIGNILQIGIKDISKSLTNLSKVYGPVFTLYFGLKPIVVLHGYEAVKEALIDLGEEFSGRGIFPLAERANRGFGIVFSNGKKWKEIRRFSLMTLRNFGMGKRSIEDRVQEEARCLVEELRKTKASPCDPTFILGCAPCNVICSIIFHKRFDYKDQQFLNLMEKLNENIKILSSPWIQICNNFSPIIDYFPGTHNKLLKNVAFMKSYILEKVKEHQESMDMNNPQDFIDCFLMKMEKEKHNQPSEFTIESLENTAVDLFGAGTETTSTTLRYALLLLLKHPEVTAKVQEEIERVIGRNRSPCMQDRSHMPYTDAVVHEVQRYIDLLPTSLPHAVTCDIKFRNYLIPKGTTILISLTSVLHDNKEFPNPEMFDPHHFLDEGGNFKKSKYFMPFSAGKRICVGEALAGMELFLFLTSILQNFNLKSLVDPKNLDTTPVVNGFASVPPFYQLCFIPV
Chain of Cyp-p450 2C8 (P10632 whole entry): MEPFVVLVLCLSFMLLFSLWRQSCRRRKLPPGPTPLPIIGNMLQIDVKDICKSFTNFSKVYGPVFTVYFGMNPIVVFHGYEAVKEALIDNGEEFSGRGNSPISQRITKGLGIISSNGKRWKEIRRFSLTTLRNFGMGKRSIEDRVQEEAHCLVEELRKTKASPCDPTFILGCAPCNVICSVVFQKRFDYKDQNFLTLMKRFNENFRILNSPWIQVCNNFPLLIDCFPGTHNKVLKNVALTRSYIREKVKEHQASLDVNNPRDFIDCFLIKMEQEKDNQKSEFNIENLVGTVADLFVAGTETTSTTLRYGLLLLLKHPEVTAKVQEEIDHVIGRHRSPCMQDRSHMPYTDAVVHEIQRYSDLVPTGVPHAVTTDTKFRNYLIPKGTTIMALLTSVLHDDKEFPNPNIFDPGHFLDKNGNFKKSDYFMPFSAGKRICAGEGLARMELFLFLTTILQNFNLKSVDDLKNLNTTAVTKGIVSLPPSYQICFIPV
Chain of Cyp-p450 2B6 (P20813 whole entry): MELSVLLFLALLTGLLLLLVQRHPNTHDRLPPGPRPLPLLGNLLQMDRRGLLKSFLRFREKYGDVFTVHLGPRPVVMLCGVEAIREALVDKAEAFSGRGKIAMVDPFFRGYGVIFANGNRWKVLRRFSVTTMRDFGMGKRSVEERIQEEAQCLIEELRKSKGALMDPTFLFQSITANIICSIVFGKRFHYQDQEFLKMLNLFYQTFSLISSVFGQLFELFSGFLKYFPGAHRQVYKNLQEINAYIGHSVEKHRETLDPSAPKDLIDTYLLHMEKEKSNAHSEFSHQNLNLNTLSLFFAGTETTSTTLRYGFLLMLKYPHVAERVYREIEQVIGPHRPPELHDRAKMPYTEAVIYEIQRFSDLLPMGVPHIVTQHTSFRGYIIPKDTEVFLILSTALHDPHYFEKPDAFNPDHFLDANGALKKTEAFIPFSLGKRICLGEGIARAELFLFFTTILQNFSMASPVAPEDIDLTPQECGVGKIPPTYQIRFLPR
Chain of Cyp-p450 2C19 (P33261 whole entry): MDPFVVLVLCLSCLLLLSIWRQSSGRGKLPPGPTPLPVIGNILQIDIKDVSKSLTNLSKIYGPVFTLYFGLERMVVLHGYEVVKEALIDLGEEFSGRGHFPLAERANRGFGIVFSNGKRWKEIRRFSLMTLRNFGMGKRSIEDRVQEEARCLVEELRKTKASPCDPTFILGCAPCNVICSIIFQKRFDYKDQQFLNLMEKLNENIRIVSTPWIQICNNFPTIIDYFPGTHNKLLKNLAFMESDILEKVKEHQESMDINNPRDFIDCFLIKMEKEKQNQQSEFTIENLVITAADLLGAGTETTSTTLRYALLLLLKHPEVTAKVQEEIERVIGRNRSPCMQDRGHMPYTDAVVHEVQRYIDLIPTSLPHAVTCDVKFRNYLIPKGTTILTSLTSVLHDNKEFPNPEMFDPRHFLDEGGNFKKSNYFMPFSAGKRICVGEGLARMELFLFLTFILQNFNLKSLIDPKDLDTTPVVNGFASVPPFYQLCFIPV
Chain of Cyp-p450 1A2 (P05177 whole entry): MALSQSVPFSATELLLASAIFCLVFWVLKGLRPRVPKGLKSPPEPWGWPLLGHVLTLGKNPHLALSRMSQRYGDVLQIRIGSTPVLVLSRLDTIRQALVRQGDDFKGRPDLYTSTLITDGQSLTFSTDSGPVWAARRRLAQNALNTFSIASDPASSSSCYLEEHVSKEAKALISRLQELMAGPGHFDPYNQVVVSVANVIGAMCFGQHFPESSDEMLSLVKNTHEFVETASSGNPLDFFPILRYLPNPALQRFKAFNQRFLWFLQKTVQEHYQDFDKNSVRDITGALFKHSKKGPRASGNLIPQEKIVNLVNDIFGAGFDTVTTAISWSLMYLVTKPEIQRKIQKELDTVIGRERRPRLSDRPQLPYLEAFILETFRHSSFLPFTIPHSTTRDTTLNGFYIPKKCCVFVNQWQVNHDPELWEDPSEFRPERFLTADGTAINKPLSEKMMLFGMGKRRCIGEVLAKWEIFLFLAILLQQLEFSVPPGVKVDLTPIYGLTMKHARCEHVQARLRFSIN
Chain of Cyp-p450 2D6 (P10635 whole entry): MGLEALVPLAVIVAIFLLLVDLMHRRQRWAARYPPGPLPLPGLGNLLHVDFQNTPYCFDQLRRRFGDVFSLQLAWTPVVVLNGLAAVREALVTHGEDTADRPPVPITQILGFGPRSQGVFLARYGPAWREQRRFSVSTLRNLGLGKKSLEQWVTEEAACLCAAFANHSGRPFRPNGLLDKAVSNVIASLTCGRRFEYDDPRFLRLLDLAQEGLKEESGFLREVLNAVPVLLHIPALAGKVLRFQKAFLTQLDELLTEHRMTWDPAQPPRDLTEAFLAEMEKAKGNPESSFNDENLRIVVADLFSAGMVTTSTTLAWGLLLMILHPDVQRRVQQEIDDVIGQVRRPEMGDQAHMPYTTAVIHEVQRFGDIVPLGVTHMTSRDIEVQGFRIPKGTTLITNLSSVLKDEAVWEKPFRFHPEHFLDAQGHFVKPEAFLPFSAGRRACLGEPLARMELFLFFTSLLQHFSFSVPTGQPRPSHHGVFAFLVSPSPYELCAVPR

With `C[C@]12CC3CC(C(=O)N[C@H]4CC[C@@H](N)CC4)(C1)C[C@@](c1ccccc1)(C3)C2.Cl` [Example B2] the EC50 [1] was 277 nM, the EC50 [2] was 15 nM and the “P-gp substrate ID Caco-2 Permeability (+Verapamil) Paap Mean A > B” value (P-gp) was 6.19 10^−6 cm s^−1. For the same compound, the “P-gp substrate ID Caco-2 Permeability (+Verapamil) Paap Mean B > A” value (P-gp) was 6.83 10^−6 cm s^−1, the CC50 (in vitro [3]) was 19100 nM and the “Ebola Zaire SI (CC50/EC90)” value (Ebola Zaire [4]) was 72.5. The IC50 (Cyp-p450 2C9) was over 100000 nM, the CC50 (in vitro [5]) was 67600 nM and the EC50 (Sudan Gulu [6]) was 1100 nM. The solubility (physchem) was over 500 µM, the EC50 (Sudan Gulu [7]) was 180 nM and the IC50 (Cyp-p450 2C19) was 51000 nM. For the same compound, the IC50 (Cyp-p450 2C8) was over 100000 nM, the EC90 (Ebola Zaire [8]) was 800 nM and the EC50 (Ebola Zaire [9]) was 440 nM. The Turbidimetric solubility [10] was over 500 µM, the “Liver Microsome Stability % Remaining after 60 Minutes, Guinea Pig” value [11] was 100% and the “Liver Microsome Stability % Remaining after 60 Minutes, Mouse” value [12] was 71%. The “Liver Microsome Stability % Remaining after 60 Minutes, Monkey” value [13] was 85%, the IC50 (Cyp-p450 1A2) was over 100000 nM and the “Liver Microsome Stability % Remaining after 60 Minutes, Human” value [14] was 100%. The IC50 (Cyp-p450 3A4; CYP Inhibition 3A4 (Midazolam)) was over 100000 nM, the IC50 (Cyp-p450 3A4; CYP Inhibition 3A4 (Testosterone)) was 88000 nM and the fraction unbound (in vitro [15]) was 0.039. For the same compound, the fraction unbound (in vitro [16]) was 0.011, the EC50 [17] was 67 nM and the “SI50 (CC50/EC50)” value (EBOV (Mayinga)) was 282. For the same compound, the EC50 (EBOV (Mayinga); Zaire ebolavirus, Vero) was 240 nM, the Papp A→B (in vitro [18]) was 3.07 ×10⁻⁶ cm/s and the Papp B→A (in vitro [18]) was 7.86 ×10⁻⁶ cm/s. It also gave an efflux ratio (in vitro [18]) of 2.71, an EC50 [19] of 6450 nM and an EC50 (Ebola Zaire [20]) of 240 nM. The IC50 (Cyp-p450 2D6) was over 100000 nM, the IC50 (Cyp-p450 2B6) was over 100000 nM and the EC50 [21] was 10 nM.
